Experimental data from patent US12485191B2, “Radiopharmaceuticals and methods of use thereof” (BOARD OF REGENTS OF THE UNIVERSITY OF NEBRASKA, priority 2017, dated 2025).
Marks after values point to notes of the source that are not given here.

Legend:
[1] = target: T1, NTSR1 (Homo sapiens, UniProt P30989); test: In vitro competitive neurotensin receptor binding in HT-29 cells vs 177Lu-N1; conditions: unlabeled conjugates
T1 construct: endogenous in cells; host or cells: HT-29 human colon cancer cells (ATCC)
Procedure: In Vitro Competitive Neurotensin Receptor Binding Studies
The IC50 for the unlabeled conjugates binding to the neurotensin receptors was determined using the HT-29 human colon cancer cell line. […]. Med. Biol., 42:816), served as the competitive radioligand for comparing the relative binding affinities of the conjugates. HT-29 cells (˜1×10^6) suspended in 100 μL of McCoy's 5A medium (pH 7.4, 4.8 mg/mL HEPES, and 2 mg/mL BSA) were incubated with 177Lu-N1 (100,000 cpm, 100 μL) at 37° C. for 45 minutes in the presence of the conjugates with predetermined concentrations (0.5 nM-1 μM) in 100 μL of medium. At the end of the incubation, the cells were centrifuged, aspirated, and washed with fresh medium (5×500 μL). The cell-associated radioactivity was measured using gamma counter and the IC50 values determined by nonlinear regression using GraphPad Prism 5. All measurements were in biological triplicate.

[2] = target: T2, cathepsin B (human Liver) (Homo sapiens, UniProt P07858); test: Inhibition constant (Ki) of the compounds to cathepsin B; assay type: biochemical; conditions: read-out: CatB K1
T2 construct: from tissue; host or cells: human liver
Procedure: Determination of the Km and Vmax of Cathepsin B for Z-Arg-Arg-AMC
The solution of cathepsin B (human Liver) (50 μL, 2 nM) in assay buffer used above was mixed with 50 μL of solution of substrate Z-Arg-Arg-AMC in the assay buffer at different concentrations ([S]) (25 μM, 50 μM, 100 μM, 500 μM and 1 mM). The mixture was incubated at 37° C. and the fluorescence of the liberated aminomethylcoumarin at 460 nM using 355 nm excitation was measured at predetermined time points (0, 2, 4, 6, 8, and 10 minutes). The fluorescence intensity was plotted versus time and the reaction rates (v0) were calculated as the slope of the trend lines obtained by liner regression. Km and maximum reaction rate (Vmax-obs) was determined from the equation v0=Vmax[S]/(Km+[S]) and solved by nonlinear regression using GraphPad Prism 5. All measurements were in biological triplicate.
Determination of the Inhibition Constant (Ki) of the Compounds to Cathepsin B
The cathepsin B (human Liver) in assay buffer (25 μL) was mixed with the conjugate (25 μL) in 96-well plate. After the solution was mixed, the Z-Arg-Arg-AMC in assay buffer (50 μL) was added to the well, yielding a final cathepsin B concentration of 1 nM, conjugate concentration ([C]) of 15 nM or 5 μM, and substrate concentration ([S]) of 25 μM, 50 μM, 100 μM, 500 μM and 1 mM. The mixture was incubated at 37° C. and the fluorescence of the liberated aminomethylcoumarin at 460 nM using 355 nm excitation was measured at predetermined time points (0, 2, 4, 6, 8, and 10 minutes). The fluorescence intensity was plotted versus time with observed reaction rates (v0-obs) calculated as the slope of the trend lines obtained by liner regression. The observed rate constant (Kobs) and observed maximum reaction rate (Vmax-obs) was determined from the equation v0-obs=Vmax-obs [S]/(Kobs+[S]) and solved by nonlinear regression using GraphPad Prism 5. The Ki was calculated from the equation Kobs=Km (1+[C]/Ki). All measurements were in biological triplicate.

[3] = system: HT-29 xenograft tumors; test: Biodistribution study in HT-29 xenograft mouse model; assay type: in vivo, mice
Procedure: Female SCID mice (5 weeks of age) received subcutaneous injections of HT-29 cells (5×10^6) suspended in Matrigel® into the flanks. When the tumor size reached 80 mm^3 (two weeks after injection), the mice were randomized into three groups and intravenously injected with 10 μCi (0.37 MBq) of the purified ^177Lu labeled conjugates via tail vein. The mice were sacrificed and the tissues were excised at 4, 24, and 72 hours post-injection time points. The blood, tumor, and excised tissues were weighed. The radioactivity for each sample was measured using a gamma counter. The percentage injected dose per gram (% ID/g) and the radioactivity ratios between tumor and non-targeted tissues were calculated.

[4] = Distribution coefficient (Log D7.4) of the conjugates; assay type: physicochemical
Procedure: Distribution Coefficient (Log D7.4) of the Conjugates The distribution coefficient was determined for each ^177Lu-labeled conjugate. In a 1.5 mL centrifuge tube, 0.5 mL of 1-octanol was added to 0.5 mL of PBS (pH 7.4) containing the radiolabeled peptide (500,000 cpm). The solution was vigorously vortexed for 2 minutes at room temperature and subsequently centrifuged to yield two immiscible layers. The radioactivity of the aliquots (100 μL) taken from each layer were quantified by the gamma counter and the Log D7.4 for each conjugates was calculated.

[5] = target: CatB (Homo sapiens, UniProt P07858); test: CatB inhibition of GRPR-targeted agents; assay type: biochemical
Procedure: The Inhibition of Cathepsin B Activity by the Conjugates The phosphate buffer (0.1 M, pH=5.8) containing EDTA (1 mM), DTT (2.7 mM), and Brij®35 (0.03%) was prepared before the assay. […] The solution of cathepsin B (human Liver) in assay buffer (50 μL, 0.544 nM) was added to the mixture which was further incubated at 37° C. for 20 minutes. The fluorescence of the liberated aminomethylcoumarin at 460 nM using 355 nm excitation was measured and the IC50 of the cathepsin B inhibition versus the samples without the inhibitor was determined by nonlinear regression using GraphPad Prism 5.

[6] = system: PC-3 tumor; conditions: mouse, in vivo
[7] = determined by radiometric analysis, 177Lu-labeled conjugate

T1 sequence (P30989 whole entry): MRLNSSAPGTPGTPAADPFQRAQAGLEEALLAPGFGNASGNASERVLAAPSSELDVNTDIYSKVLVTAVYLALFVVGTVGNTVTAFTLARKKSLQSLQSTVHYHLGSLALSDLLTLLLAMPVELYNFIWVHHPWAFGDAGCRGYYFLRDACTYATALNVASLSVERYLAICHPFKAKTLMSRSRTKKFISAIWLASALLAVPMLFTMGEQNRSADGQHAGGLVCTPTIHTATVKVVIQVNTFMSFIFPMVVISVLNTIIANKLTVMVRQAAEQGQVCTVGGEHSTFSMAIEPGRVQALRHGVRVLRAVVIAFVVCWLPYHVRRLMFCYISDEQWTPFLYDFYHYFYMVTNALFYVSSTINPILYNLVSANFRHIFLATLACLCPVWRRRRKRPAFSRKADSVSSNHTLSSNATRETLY

| Structure (SMILES) | IC50 [1] | Ki [2] | logD7.4 [4, 7] | also measured |
| --- | --- | --- | --- | --- |
| Cc1cc(C)c(C(=O)OCC(=O)[C@H](CCCCNC(=O)CNC(=O)[C@@H](CO)NC(=O)[C@@H](CO)NC(=O)[C@@H](CO)NC(=O)Cn2cc(C[C@H](NC(=O)CN3CCN(CC(=O)O)CCN(CC(=O)O)CCN(CC(=O)O)CC3)C(=O)N[C@H](CO)C(=O)N[C@H](CO)C(=O)N[C@H](CO)C(=O)N[C@@H](CCCCN)C(=O)N3CCC[C@H]3C(=O)N(C)[C@@H](CCCNC(=N)N)C(=O)N[C@@H](CCCNC(=N)N)C(=O)N3CCC[C@H]3C(=O)N[C@@H](Cc3c(C)cc(O)cc3C)C(=O)N[C@H](C(=O)N[C@@H](CC(C)C)C(=O)O)C(C)(C)C)nn2)NC(=O)[C@H](Cc2ccccc2)NC(=O)OCc2ccccc2)c(C)c1 [Compound 2f] | 18 ± 2 nM | 50 ± 13 nM |  |  |
| Cc1cc(C)c(C(=O)OCC(=O)[C@H](CCCCNC(=O)CNC(=O)[C@@H](CO)NC(=O)[C@@H](CO)NC(=O)[C@@H](CO)NC(=O)Cn2cc(C[C@H](NC(=O)CN3CCN(CC(=O)O)CCN(CC(=O)O)CCN(CC(=O)O)CC3)C(=O)N[C@H](CO)C(=O)N[C@H](CO)C(=O)N[C@H](CO)C(=O)N[C@@H](CCCCN)C(=O)N3CCC[C@H]3C(=O)N(C)[C@@H](CCCNC(=N)N)C(=O)N[C@@H](CCCNC(=N)N)C(=O)N3CCC[C@H]3C(=O)N[C@@H](Cc3c(C)cc(O)cc3C)C(=O)N[C@H](C(=O)N[C@@H](CC(C)C)C(=O)O)C(C)(C)C)nn2)NC(=O)[C@H](Cc2ccccc2)NC(=O)OCc2ccccc2)c(C)c1 (177Lu complex, metal not drawn) [Compound 2f] |  |  |  | retention in liver and kidney compared to 3b (in words) ([3]; HT-29 xenograft mice): significantly increased retention; increase in retention in the tumors compared to control 3b ([3]; HT-29 xenograft, after 24 hours): nearly two-fold increase; increase in tumor uptake ([3]; HT-29 xenograft, by 24 hours): 25% |
| CC(C)C[C@H](NC(=O)CCC(=O)O)C(=O)N[C@@H](CCCNC(=N)N)C(=O)NCCn1cc(C[C@H](NC(=O)CN2CCN(CC(=O)O)CCN(CC(=O)O)CCN(CC(=O)O)CC2)C(=O)NCCOCCOCCOCCOCCC(=O)N[C@H](Cc2ccccc2)C(=O)N[C@@H](CCC(N)=O)C(=O)N[C@@H](Cc2c[nH]c3ccccc23)C(=O)N[C@@H](C)C(=O)N[C@H](C(=O)NCC(=O)N[C@@H](Cc2c[nH]cn2)C(=O)N[C@@H](CC(C)C)[C@@H](O)CC(=O)N[C@H](CC(C)C)C(N)=O)C(C)C)nn1 [^177Lu-C-ANT, metal not drawn] |  |  |  | logD7.4 ([4]; GRPR-targeted agents): −1.9 ± 0.1; inhibition of catB (in words) [5]: no inhibition; tumor retention [6]: 15% |
| Cc1cc(C)c(C(=O)OCC(=O)[C@H](CCCCn2cc(C[C@H](NC(=O)CN3CCN(CC(=O)O)CCN(CC(=O)O)CCN(CC(=O)O)CC3)C(=O)NCCC(=O)N[C@@H](CCCCN)C(=O)N3CCC[C@H]3C(=O)N(C)[C@@H](CCCNC(=N)N)C(=O)N[C@@H](CCCNC(=N)N)C(=O)N3CCC[C@H]3C(=O)N[C@@H](Cc3c(C)cc(O)cc3C)C(=O)N[C@H](C(=O)N[C@@H](CC(C)C)C(=O)O)C(C)(C)C)nn2)NC(=O)[C@H](Cc2ccccc2)NC(=O)OCc2ccccc2)c(C)c1 [Compound 2a] | 20 ± 2 nM | 25 ± 4 nM | −1.46 ± 0.02^b |  |

Continued, in another order:

| IC50 [1] | Ki [2] | Structure (SMILES) | logD7.4 [4, 7] | also measured |
| --- | --- | --- | --- | --- |
| 22 ± 2 nM | 26 ± 5 nM | Cc1cc(C)c(C(=O)OCC(=O)[C@H](CCCCNC(=O)Cn2cc(C[C@H](NC(=O)CN3CCN(CC(=O)O)CCN(CC(=O)O)CCN(CC(=O)O)CC3)C(=O)NCCC(=O)N[C@@H](CCCCN)C(=O)N3CCC[C@H]3C(=O)N(C)[C@@H](CCCNC(=N)N)C(=O)N[C@@H](CCCNC(=N)N)C(=O)N3CCC[C@H]3C(=O)N[C@@H](Cc3c(C)cc(O)cc3C)C(=O)N[C@H](C(=O)N[C@@H](CC(C)C)C(=O)O)C(C)(C)C)nn2)NC(=O)[C@H](Cc2ccccc2)NC(=O)OCc2ccccc2)c(C)c1 [Compound 2b] | −1.49 ± 0.02^b |  |
| 20 ± 3 nM | 73 ± 8 nM | Cc1cc(C)c(C(=O)OCC(=O)[C@H](CCCCNC(=O)CNC(=O)[C@@H](CO)NC(=O)[C@@H](CO)NC(=O)[C@@H](CO)NC(=O)Cn2cc(C[C@H](NC(=O)CN3CCN(CC(=O)O)CCN(CC(=O)O)CCN(CC(=O)O)CC3)C(=O)NCCC(=O)N[C@@H](CCCCN)C(=O)N3CCC[C@H]3C(=O)N(C)[C@@H](CCCNC(=N)N)C(=O)N[C@@H](CCCNC(=N)N)C(=O)N3CCC[C@H]3C(=O)N[C@@H](Cc3c(C)cc(O)cc3C)C(=O)N[C@H](C(=O)N[C@@H](CC(C)C)C(=O)O)C(C)(C)C)nn2)NC(=O)[C@H](Cc2ccccc2)NC(=O)OCc2ccccc2)c(C)c1 [Compound 2d] | −1.79 ± 0.06^b |  |
